From patent US20060069132A1, “Azolecarboxamide herbicides” (priority 2004, published 2006)

Assays:
barnyardgrass = assay: Test A pre-/postemergence herbicide test; type: in vivo, Echinochloa crus-galli
Procedure, shortened: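 Visual injury scores on a 0–100 scale (100 = complete control) taken about ten days post-treatment in greenhouse against untreated controls; dash means no result. Treatments: preemergence soil spray and postemergence spray to runoff on one- to two-leaf plants 2 to 10 cm tall, surfactant-containing formulation.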

Surinam grass = assay: Test C pre-/postemergence herbicide test; type: in vivo, Urochloa decumbens; conditions: for Surinam Grass plant response rating: 500 g ai/ha
Procedure, shortened: (§1)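 Visual ratings on a 0–100 scale (100 = complete control) made versus untreated controls after 12 to 14 greenhouse days. Test chemicals, formulated in surfactant-containing non-phytotoxic solvent, applied preemergence to planted seeds or postemergence to 1- to 4-leaf plants (2 to 18 cm).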

cocklebur = assay: Test C pre-/postemergence herbicide test; type: in vivo, Xanthium strumarium; conditions: for Cocklebur plant response rating: 500 g ai/ha
Procedure, shortened: as §1

corn = assay: Test C pre-/postemergence herbicide test; type: in vivo, Zea mays; conditions: for Corn plant response rating: 500 g ai/ha
Procedure, shortened: as §1

woolly cupgrass = assay: Test C pre-/postemergence herbicide test; type: in vivo, Eriochloa villosa; conditions: for Cupgrass, Woolly plant response rating: 500 g ai/ha
Procedure, shortened: as §1

johnsongrass = assay: Test C pre-/postemergence herbicide test; type: in vivo, Sorghum halepense; conditions: for Johnsongrass plant response rating: 500 g ai/ha
Procedure, shortened: as §1

kochia = assay: Test C pre-/postemergence herbicide test; type: in vivo, Kochia scoparia; conditions: for Kochia plant response rating: 500 g ai/ha
Procedure, shortened: as §1

lambsquarters = assay: Test C pre-/postemergence herbicide test; type: in vivo, Chenopodium album; conditions: for Lambsquarters plant response rating: 500 g ai/ha
Procedure, shortened: as §1

eastern black nightshade = assay: Test C pre-/postemergence herbicide test; type: in vivo, Solanum ptycanthum
Procedure, shortened: as §1

[1] = system: common (oilseed) sunflower; assay: Test C pre-/postemergence herbicide test; type: in vivo, Helianthus annuus
Procedure, shortened: as §1

rice = assay: Test C flooded paddy test; type: in vivo, Oryza sativa
Procedure, shortened: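 Injury scored visually against controls on a 0 (no effect) to 100 (complete control) scale, 12 to 14 days after treatment in greenhouse. Flooded paddy plants treated at 2-leaf stage; postemergence plants at 1- to 4-leaf stage, 2 to 18 cm tall.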

[2] = 125 g ai/ha, scale 0 (no effect) to 100 (complete control), visual, 12 to 14 days, preemergence
[3] = Postemergence, 250 g ai/ha, scale 0 to 100, 0 no effect, 100 complete control
[4] = Preemergence, scale 0 to 100, 0 no effect, 100 complete control
[5] = postemergence, 125 g ai/ha, scale 0 to 100
[6] = postemergence, 62 g ai/ha, scale 0 to 100
[7] = 250 g ai/ha, scale 0 to 100 (0 no effect, 100 complete control), visual, 12 to 14 days, preemergence
[8] = Preemergence, 500 g ai/ha, scale 0 to 100, 0 no effect, 100 complete control

For `CCn1nc(C(C)(C)C)cc1C(=O)Nc1cccc(C(C)=NO)c1` [Compound 108], the “Barnyardgrass plant response rating” value (barnyardgrass; Postemergence, 500 g ai/ha, 0 to 100 scale, 0 no effect, 100 complete control) was 85, the “Plant response rating, Barnyardgrass” value (barnyardgrass; Postemergence, 2000 g ai/ha, 0 to 100 scale, 0 no effect, 100 complete control) was 100 and the “Barnyardgrass plant response rating” value (barnyardgrass; Preemergence, 500 g ai/ha, visual rating, 0 to 100 scale (0 no effect, 100 complete control)) was 85. For the same compound, the “Barnyardgrass plant response rating” value (barnyardgrass; Preemergence, 2000 g ai/ha, visual rating, 0 to 100 scale (0 no effect, 100 complete control)) was 90, the “Plant response rating (0 = no effect, 100 = complete control), Surinam Grass” value (Surinam grass; 62 g ai/ha, preemergence) was 30 and the “Plant response rating, Surinam Grass” value (Surinam grass; [2]) was 40. For the same compound, the “Surinam Grass plant response rating” value (Surinam grass; Postemergence, scale 0 to 100) was 50, the “Plant response rating, Surinam Grass” value (Surinam grass; [3]) was 40 and the “Surinam Grass plant response rating” value (Surinam grass; [4]) was 90. For the same compound, the “Plant response rating, Surinam Grass” value (Surinam grass; [5]) was 40, the “Plant response rating, Surinam Grass” value (Surinam grass; [6]) was 20 and the “Plant response rating (0 = no effect, 100 = complete control), Cocklebur” value (cocklebur; 62 g ai/ha, preemergence) was 20. For the same compound, the “Plant response rating, Cocklebur” value (cocklebur; [2]) was 30, the “Plant response rating, Cocklebur” value (cocklebur; [7]) was 30 and the “Cocklebur plant response rating” value (cocklebur; Postemergence, scale 0 to 100) was 100. For the same compound, the “Plant response rating, Cocklebur” value (cocklebur; [3]) was 100, the “Cocklebur plant response rating” value (cocklebur; [4]) was 50 and the “Plant response rating, Cocklebur” value (cocklebur; [5]) was 80. For the same compound, the “Plant response rating, Cocklebur” value (cocklebur; [6]) was 70, the “Plant response rating (0 = no effect, 100 = complete control), Corn” value (corn; 62 g ai/ha, preemergence) was 30 and the “Plant response rating, Corn” value (corn; [2]) was 40. For the same compound, the “Plant response rating, Corn” value (corn; [7]) was 50, the “Corn plant response rating” value (corn; Postemergence, scale 0 to 100) was 60 and the “Plant response rating, Corn” value (corn; [3]) was 50. The “Corn plant response rating” value (corn; [4]) was 50, the “Plant response rating, Corn” value (corn; [5]) was 50 and the “Plant response rating, Corn” value (corn; [6]) was 50. For the same compound, the “Plant response rating (0 = no effect, 100 = complete control), Cupgrass, Woolly” value (woolly cupgrass; 62 g ai/ha, preemergence) was 30, the “Plant response rating, Cupgrass, Woolly” value (woolly cupgrass; [2]) was 50 and the “Plant response rating, Cupgrass, Woolly” value (woolly cupgrass; [7]) was 50. The “Cupgrass, Woolly plant response rating” value (woolly cupgrass; Postemergence, scale 0 to 100) was 40, the “Plant response rating, Cupgrass, Woolly” value (woolly cupgrass; [3]) was 40 and the “Cupgrass, Woolly plant response rating” value (woolly cupgrass; [4]) was 80. The “Plant response rating, Cupgrass, Woolly” value (woolly cupgrass; [5]) was 40, the “Plant response rating, Cupgrass, Woolly” value (woolly cupgrass; [6]) was 20 and the “Plant response rating (0 = no effect, 100 = complete control), Johnsongrass” value (johnsongrass; 62 g ai/ha, preemergence) was 60. For the same compound, the “Plant response rating, Johnsongrass” value (johnsongrass; [2]) was 100, the “Johnsongrass plant response rating” value (johnsongrass; Postemergence, scale 0 to 100) was 90 and the “Plant response rating, Johnsongrass” value (johnsongrass; [3]) was 70. The “Johnsongrass plant response rating” value (johnsongrass; [4]) was 100, the “Plant response rating, Johnsongrass” value (johnsongrass; [5]) was 50 and the “Plant response rating, Johnsongrass” value (johnsongrass; [6]) was 20. The “Plant response rating (0 = no effect, 100 = complete control), Kochia” value (kochia; 62 g ai/ha, preemergence) was 100, the “Plant response rating, Kochia” value (kochia; [2]) was 100 and the “Kochia plant response rating” value (kochia; Postemergence, scale 0 to 100) was 90. The “Plant response rating, Kochia” value (kochia; [3]) was 90, the “Kochia plant response rating” value (kochia; [4]) was 100 and the “Plant response rating, Kochia” value (kochia; [5]) was 80. The “Plant response rating, Kochia” value (kochia; [6]) was 60, the “Plant response rating (0 = no effect, 100 = complete control), Lambsquarters” value (lambsquarters; 62 g ai/ha, preemergence) was 100 and the “Plant response rating, Lambsquarters” value (lambsquarters; [2]) was 100. The “Lambsquarters plant response rating” value (lambsquarters; Postemergence, scale 0 to 100) was 100, the “Plant response rating, Lambsquarters” value (lambsquarters; [3]) was 100 and the “Lambsquarters plant response rating” value (lambsquarters; [4]) was 100. For the same compound, the “Plant response rating, Lambsquarters” value (lambsquarters; [5]) was 100, the “Plant response rating, Lambsquarters” value (lambsquarters; [6]) was 70 and the “Plant response rating (0 = no effect, 100 = complete control), Nightshade” value (eastern black nightshade; 62 g ai/ha, preemergence) was 100. The “Plant response rating, Nightshade” value (eastern black nightshade; [2]) was 100, the “Nightshade plant response rating” value (eastern black nightshade; [8]) was 100 and the “Plant response rating (0 = no effect, 100 = complete control), Sunflower” value ([1]; 62 g ai/ha, preemergence) was 20. The “Plant response rating, Sunflower” value [1, 2] was 20, the “Sunflower plant response rating” value [1, 8] was 20 and the “Rice plant response rating” value (rice; 62 g ai/ha, scale 0 to 100 (0 no effect, 100 complete control)) was 0. The “Rice plant response rating” value (rice; 125 g ai/ha, scale of 0 to 100, 0 is no effect, 100 is complete control) was 0, the “Rice plant response rating” value (rice; 250 g ai/ha, scale of 0 to 100, 0 is no effect, 100 is complete control) was 20 and the “Plant response rating, Rice” value (rice; 500 g ai/ha, visual rating after 12 to 14 days, scale 0 to 100 (0 no effect, 100 complete control)) was 50.
